Data from patent publication US9328099B2, “Cyanomethylpyrazole carboxamides as janus kinase inhibitors” (Merck Sharp & Dohme Corp., priority 2011, dated 2016).

Legend:
[1] = biological target: JAK2 (Homo sapiens (Human), UniProt O60674); test: Jak Biochemical HTRF Assay, JAK2; settings: HTRF biochemical assay, GST-tagged catalytic domain; top concentration tested […]
Description: (§1) Jak Biochemical HTRF Assay Protocol
(§2) Subsequent reagent additions employed an Agilent Bravo.

[2] = biological target: JAK1 (Homo sapiens (Human), UniProt P23458); test: Jak Biochemical HTRF Assay, JAK1; settings: HTRF biochemical assay, GST-tagged catalytic domain; top concentration tested […]; read-out: JAK1 IC50
Chain of JAK1 (P23458 875-1153): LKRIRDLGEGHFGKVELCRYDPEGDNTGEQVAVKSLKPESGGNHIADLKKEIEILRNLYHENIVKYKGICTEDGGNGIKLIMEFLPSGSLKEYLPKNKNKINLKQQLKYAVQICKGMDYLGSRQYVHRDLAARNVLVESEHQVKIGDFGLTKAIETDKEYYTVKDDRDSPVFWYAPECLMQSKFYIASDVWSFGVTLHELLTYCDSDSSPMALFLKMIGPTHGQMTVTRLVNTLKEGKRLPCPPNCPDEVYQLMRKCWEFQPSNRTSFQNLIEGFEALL
Description: as §1, §2

Chain of JAK2 (O60674 849-1124): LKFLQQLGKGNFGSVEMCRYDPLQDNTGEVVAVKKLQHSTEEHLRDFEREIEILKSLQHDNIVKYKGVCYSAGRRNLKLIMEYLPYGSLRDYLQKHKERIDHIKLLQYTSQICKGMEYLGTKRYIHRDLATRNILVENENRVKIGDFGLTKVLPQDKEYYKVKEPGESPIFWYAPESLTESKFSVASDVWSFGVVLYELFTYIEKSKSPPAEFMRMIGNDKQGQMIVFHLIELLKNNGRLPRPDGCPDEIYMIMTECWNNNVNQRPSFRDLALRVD

Structure (SMILES) | IC50 [1] | IC50 [2]
CN(C)CCCOC(=O)N1CC(CC#N)(n2cc(C(N)=O)c(Nc3ccccc3)n2)C1 [Example 30-71, 3-(dimethylamino)propyl 3-[4-carbamoyl-3-(phenylamino)-1H-pyrazol-1-yl]-3-(cyanomethyl)azetidine-1-carboxylate] | 1.48 µM | 0.2 µM
CN1CCC(COC(=O)N2CC(CC#N)(n3cc(C(N)=O)c(Nc4ccccc4)n3)C2)CC1 [Example 30-73, (1-methylpiperidin-4-yl)methyl-3-[4-carbamoyl-3-(phenylamino)-1H-pyrazol-1-yl]-3-(cyanomethyl)azetidine-1-carboxylate] | 1.48 µM | 0.13 µM
CS(=O)(=O)c1ccc(Nc2nn(C3(CC#N)CN(C(=O)OC4CCOC4)C3)cc2C(N)=O)cc1 (stereo not shown) [Example 30-75, tetrahydrofuran-3-yl 3-(4-carbamoyl-3-{[4-(methylsulfonyl)phenyl]amino)-1H-pyrazol-1-yl)-3-(cyanomethyl)azetidine-1-carboxylate] | 0.221 µM | 0.022 µM
CS(=O)(=O)c1ccc(Nc2nn(C3(CC#N)CN(C(=O)OC4CCOCC4)C3)cc2C(N)=O)cc1 [Example 30-76, tetrahydro-2H-pyran-4-yl 3-(4-carbamoyl-3-{[4-(methylsulfonyl)phenyl]amino}-1H-pyrazol-1-yl)-3-(cyanomethyl)azetidine-1-carboxylate] | 0.285 µM | 0.074 µM
C[C@H](OC(=O)N1CCC(CC#N)(n2cc(C(N)=O)c(Nc3ccnc(F)c3)n2)CC1)C1CC1 [Example 30-77, (1S)-1-cyclopropylethyl 4-{4-carbamoyl-3-[(2-fluoropyridin-4-yl)amino]-1H-pyrazol-1-yl}-4-(cyanomethyl)piperidine-1-carboxylate] | 0.009 µM | 0.0002 µM
C[C@@H](OC(=O)N1CCC(CC#N)(n2cc(C(N)=O)c(Nc3ccnc(F)c3)n2)CC1)C1CC1 [Example 30-78, (1R)-1-cyclopropylethyl 4-{4-carbamoyl-3-[(2-fluoropyridin-4-yl)amino]-1H-pyrazol-1-yl}-4-(cyanomethyl)piperidine-1-carboxylate] | 0.012 µM | 0.0003 µM
CC(CO)OC(=O)N1CCC(CC#N)(n2cc(C(N)=O)c(Nc3ccc(F)cc3)n2)CC1 (stereo not shown) [Example 31, 2-Hydroxy-1-methylethyl 4-{4-carbamoyl-3-[(4-fluorophenyl)amino]-1H-pyrazol-1-yl}-4-(cyanomethyl)piperidine-1-carboxylate] | 0.008 µM | 0.0004 µM
CC(=O)N1CC(CC#N)(n2cc(C(N)=O)c(Nc3ccccc3)n2)C1 [Example 32, 1-[1-Acetyl-3-(cyanomethyl)azetidin-3-yl]-3-(phenylamino)-1H-pyrazole-4-carboxamide] | 0.51 µM | 0.094 µM
CCC(=O)N1CCC(CC#N)(n2cc(C(N)=O)c(Nc3ccccc3)n2)CC1 [Example 33-1, 1-[4-(Cyanomethyl)-1-propanoylpiperidin-4-yl]-3-(phenylamino)-1H-pyrazole-4-carboxamide] | 0.026 µM | 0.002 µM
C/C=C/C(=O)N1CCC(CC#N)(n2cc(C(N)=O)c(Nc3ccccc3)n2)CC1 [Example 33-2, 1-{1-[(2E)-but-2-enoyl]-4-(cyanomethyl)piperidin-4-yl}-3-(phenylamino)-1H-pyrazole-4-carboxamide] | 0.064 µM | 0.002 µM
N#CCC1(n2cc(C(N)=O)c(Nc3ccccc3)n2)CCN(C(=O)C2CC2)CC1 [Example 34-1, 1-[4-(Cyanomethyl)-1-(cyclopropylcarbonyl)piperidin-4-yl]-3-(phenylamino)-1H-pyrazole-4-carboxamide] | 0.016 µM | 0.001 µM
COCC(=O)N1CCC(CC#N)(n2cc(C(N)=O)c(Nc3ccccc3)n2)CC1 [Example 34-2, 1-[4-(cyanomethyl)-1-(methoxyacetyl)piperidin-4-yl]-3-(phenylamino)-1H-pyrazole-4-carboxamide] | 0.093 µM | 0.005 µM
CC(C)(C)C(=O)N1CCC(CC#N)(n2cc(C(N)=O)c(Nc3ccccc3)n2)CC1 [Example 34-3, 1-[4-(cyanomethyl)-1-(2,2-dimethylpropanoyl)piperidin-4-yl]-3-(phenylamino)-1H-pyrazole-4-carboxamide] | 0.091 µM | 0.013 µM
CCCCC(=O)N1CCC(CC#N)(n2cc(C(N)=O)c(Nc3ccccc3)n2)CC1 [Example 34-4, 1-[4-(cyanomethyl)-1-pentanoylpiperidin-4-yl]-3-(phenylamino)-1H-pyrazole-4-carboxamide] | 0.07 µM | 0.012 µM
CN(C)CC(=O)N1CCC(CC#N)(n2cc(C(N)=O)c(Nc3ccccc3)n2)CC1 [Example 34-5, 1-[4-(cyanomethyl)-1-(N,N-dimethylglycyl)piperidin-4-yl]-3-(phenylamino)-1H-pyrazole-4-carboxamide] | 0.318 µM | 0.013 µM
N#CCC1(n2cc(C(N)=O)c(Nc3ccccc3)n2)CCN(C(=O)C2CCCO2)CC1 (stereo not shown) [Example 34-6, 1-[4-(cyanomethyl)-1-(tetrahydrofuran-2-ylcarbonyl)piperidin-4-yl]-3-(phenylamino)-1H-pyrazole-4-carboxamide] | 0.107 µM | 0.005 µM
N#CCC1(n2cc(C(N)=O)c(Nc3ccccc3)n2)CCN(C(=O)c2ccccc2)CC1 [Example 34-7, 1-[4-(cyanomethyl)-1-(phenylcarbonyl)piperidin-4-yl]-3-(phenylamino)-1H-pyrazole-4-carboxamide] | 0.094 µM | 0.006 µM
N#CCC1(n2cc(C(N)=O)c(Nc3ccccc3)n2)CCN(C(=O)c2cccnc2)CC1 [Example 34-8, 1-[4-(cyanomethyl)-1-(pyridin-3-ylcarbonyl)piperidin-4-yl]-3-(phenylamino)-1H-pyrazole-4-carboxamide] | 0.191 µM | 0.014 µM
N#CCC1(n2cc(C(N)=O)c(Nc3ccccc3)n2)CCN(C(=O)c2ccncc2)CC1 [Example 34-10, 1-[4-(cyanomethyl)-1-(pyridin-4-ylcarbonyl)piperidin-4-yl]-3-(phenylamino)-1H-pyrazole-4-carboxamide] | 0.318 µM | 0.02 µM
Cc1cc(C(=O)N2CCC(CC#N)(n3cc(C(N)=O)c(Nc4ccccc4)n3)CC2)no1 [Example 34-12, 1-{4-(cyanomethyl)-1-[(5-methylisoxazol-3-yl)carbonyl]piperidin-4-yl}-3-(phenylamino)-1H-pyrazole-4-carboxamide] | 0.195 µM | 0.015 µM
N#CCC1(n2cc(C(N)=O)c(Nc3ccccc3)n2)CCN(C(=O)C2CCCCC2)CC1 [Example 34-13, 1-[4-(cyanomethyl)-1-(cyclohexylcarbonyl)piperidin-4-yl]-3-(phenylamino)-1H-pyrazole-4-carboxamide] | 0.044 µM | 0.002 µM
N#CCC1(n2cc(C(N)=O)c(Nc3ccccc3)n2)CCN(C(=O)c2cccs2)CC1 [Example 34-14, 1-[4-(cyanomethyl)-1-(thiophen-2-ylcarbonyl)piperidin-4-yl]-3-(phenylamino)-1H-pyrazole-4-carboxamide] | 0.008 µM | 0.0003 µM
N#CCC1(n2cc(C(N)=O)c(Nc3ccccc3)n2)CCN(C(=O)CN2CCCC2=O)CC1 [Example 34-15, 1-{4-(cyanomethyl)-1-[(2-oxopyrrolidin-1-yl)acetyl]piperidin-4-yl}-3-(phenylamino)-1H-pyrazole-4-carboxamide] | 0.194 µM | 0.005 µM
